# From patent US7605154B2, “Substituted Thiazolo [4,5-d]pyrimidines as protein kinase inhibitors” (Janssen Pharmaceutica N.V., priority 2005, dated 2009)
# Values joined by “and” are separate entries in the source; they are usually repeats but may differ in a detail not shown here. Equal entries are not always repeated.
# Columns and labels:
# EGFR = target: T1, EGFR (Homo sapiens, UniProt P00533); assay: EGFR Kinase Assay; assay type: biochemical; details: GST-EGFR, 5 μM ATP
# T1 construct: started at nucleotide 2189 (corresponding to amino acid 667) and ended at the termination codon; made in house; host or cells: Sf9 insect cells (baculovirus)
# In short: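 Baculovirus/Sf9-expressed GST-EGFR with biotinylated polyGluTyr substrate, 5 μM ATP plus γ-33P-ATP, in 50 mM Tris pH 8.0, 10 mM MgCl2, 0.1 mM vanadate, 1 mM DTT; 1 h at 30 °C.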
# SK-OV-3 [1] = assay: Cell Proliferation Inhibition Assay (14C-thymidine incorporation), SK-OV-3; assay type: cell-based; details: Homo sapiens
# Protocol: (§1) The ability of a test compound to inhibit unregulated cell proliferation may be determined by measuring incorporation of ^14C-labelled thymidine into newly synthesized DNA within cell lines derived from carcinomas originating from several tissues. Accordingly, the anti-proliferative effect of a compound on cells with a variety of phenotypes may be determined.
# The carcinoma cells are trypsinized and counted. The cells (3000-8000 count) are added to each well of a 96-well CytoStar tissue culture treated scintillating microplate (Amersham #RPNQ0160) in complete medium (100 μL) and the plate is then incubated in complete medium for 24 hrs at 37° C. in an inert atmosphere containing 5% CO2. Test compound (1 μL) in 100% DMSO is added to the plate test-wells with DMSO only added to control-wells.
# The plate contents are then discarded, the plate is washed twice with PBS (200 μL) and then PBS (200 μL) is added to each well. The plate is sealed and the degree of methyl ^14C-thyrnidine incorporation is quantified on a Packard Top Count.
# A375 = assay: Cell Proliferation Inhibition Assay (14C-thymidine incorporation), A375; assay type: cell-based; details: Homo sapiens, A-375
# From the text: as §1
# (§2) Carcinoma cell lines include those such as HeLa cervical adenocarcinoma (American Type Culture Collection (ATCC), Virginia, Cat. #CCL-2), A375 malignant melanoma (ATCC CRL-1619), SK-OV-3 ovarian adenocarcinoma (ATCC HTB-77), HCT-116 colon carcinoma (CCL-247), PC-3 prostate adenocarcinoma (ATCC CRL-1435), and MDA-MB-231 (Xenogen Corp.)
# (§3) The carcinoma cells are trypsinized and counted. […]
# (§4) An aliquot of a solution of Methyl ^14C-thymidine (56 mC/mmol) (NEN #NEC568 or Amersham #CFA532) and complete medium (20 uL to provide 0.2 μCi/well) is then added to each well and the plate is incubated for a third 24 hr period at 37° C. in an atmosphere containing 5% CO2. […] The plate is sealed and the degree of methyl ^14C-thyrnidine incorporation is quantified on a Packard Top Count.
# HeLa = assay: Cell Proliferation Inhibition Assay (14C-thymidine incorporation), HeLa; assay type: cell-based; details: Homo sapiens
# From the text: as §1, §2, §3, §4
# SK-OV-3 [2] = assay: SK-OV-3 Cell Migration Inhibition; assay type: cell-based; details: several values in a cell are repeat determinations
# HCT-116 = assay: Cell Proliferation Inhibition Assay (14C-thymidine incorporation), HCT-116; assay type: cell-based; details: Homo sapiens
# From the text: as §1, §2, §3, §4
# c-Abl kinase = target: T2, c-Abl kinase (Homo sapiens, UniProt P00519); assay: c-Abl Kinase Assay; assay type: biochemical; details: test concentration of 1 μM; read-out: c-Abl percent inhibition
# T2 construct: purchased Upstate Biotechnology, Lake Placid, N.Y
# Protocol: A mixture of a 10× kinase buffer (80 mM MOPS at pH 7.0, 2 mM EDTA and 100 mM Magnesium Acetate), ATP (5 μM final from a 10 mM stock), a peptide […] (50 μM final from a 0.5 mM stock), γ-^33P ATP (10 μCi/μL stock) and water is added to each well (20 μl/well) of a Streptavidin Flashplate.
# Test compound in 100% DMSO (0.5 μL) is added to the appropriate wells. Diluted c-Abl kinase (human) (Upstate Biotechnology, Lake Placid, N.Y.) (diluted in a buffer consisting of 20 mM MOPS at pH 7.0, 1 mM EDTA, β-mercaptoethanol (0.1%), Brij-35 (0.01%), glycerol (5%) and 1 mg/ml bovine serum albumin) (2.5 μL) is added to the wells to initiate the reactions.
# (§5) The reaction plates are incubated at 30° C. for 40 min. The reaction is terminated by the addition of a 3% phosphoric acid solution (5 μL). The reaction product (10 μL) is spotted onto a P30 filtermat and is washed for 5 minutes in phosphoric acid (75 mM). The wash sequence is repeated two more times and is followed with one final wash in methanol. The plates are then dried, sealed and read on the TopCount scintillation counter after 30 μL scintillation fluid is added.
# The 1% percent inhibition value for Compound 64 was derived according to the procedure described in Example 5 at a test concentration of 1 μM.
# Lyn kinase = target: T3, Lyn kinase (Homo sapiens, UniProt P07948); assay: Lyn Kinase Assay; assay type: biochemical; details: test concentration of 1 μM
# T3 construct: purchased Upstate biotechnology, Lake Placid, N.Y
# Protocol: A mixture of a 10× kinase buffer (500 mM MOPS at pH 7.5, 1 mM EGTA, 1 mM Sodium Vanadate, 1% β-mercaptoethanol and 100 mM Magnesium Acetate), ATP (5 μM final from a 10 mM stock), polyGluTyr (0.1 mg/mL final from a 1 mg/mL stock), γ-^33P ATP (10 μCi/μL stock) and water (20 μL/well) was added to each well of a Streptavidin Flashplate.
# Test compound in 100% DMSO (0.5 μL) was added to the appropriate wells. Diluted Lyn kinase (human) (Upstate biotechnology, Lake Placid, N.Y) (diluted in a buffer consisting of 50 mM Tris at pH 7.5, 0.1 mM EGTA, Sodium Vanadate (0.1 mM), β-mercaptoethanol (0.1%) and 1 mg/mL bovine serum albumin) (2.5 μL) was added to the wells to initiate the reactions.
# as §5, with “were” for “are”, “was” for “is”, “and” for “and is”, “times,” for “times and is”, “after adding” for “after”, “fluid.” for “fluid is added.”
# Percent inhibition was derived according to the procedure described in Example 5. The results for those compounds tested are shown in Table 3 at a test concentration of 1 μM.
# c-Src kinase = target: T4, c-Src kinase (Homo sapiens, UniProt P12931); assay: c-Src Kinase Assay; assay type: biochemical; details: test concentration of 1 μM
# T4 construct: purchased Upstate Biotechnology, Lake Placid, N.Y
# Protocol: A mixure of a 10× kinase buffer (80 mM MOPS at pH 7.0, 2 mM EDTA and 100 mM Magnesium Chloride), ATP (5 μM final from a 10 mM stock), a Cdc2 peptide […] (100 μM final from a 2.5 mM stock), γ-^33P ATP (10 μCi/μL stock) and water (20 μL/well) was added to each well of a Streptavidin Flashplate.
# Test compound in 100% DMSO (0.5 μL) was added to the appropriate wells. Diluted c-Src kinase (human) (Upstate Biotechnology, Lake Placid, N.Y.) (diluted in a buffer consisting of 20 mM MOPS at pH 7.0, 1 mM EDTA, β-mercaptoethanol (0.1%), Brij-35 (0.01%), glycerol (5%), and 1 mg/mL bovine serum albumin) (2.5 μL) was added to the wells to initiate the reactions. The reaction plates were incubated at 30° C. for 40 min. The reaction was terminated by the addition of a 3% phosphoric acid solution (5 μL). The reaction product (10 μL) was spotted onto a P30 filtermat and washed for 5 minutes in phosphoric acid (75 mM). The wash sequence was repeated two more times, followed with one final wash in methanol. The plates were then dried, sealed and read on the TopCount scintillation counter after adding 30 μL scintillation fluid.
# Percent inhibition was derived according to the procedure described in Example 5. The results for those compounds tested are shown in Table 2 at a test concentration of 1 μM.
# HER-2 = target: T5, HER-2 (Homo sapiens, UniProt P04626); assay: HER-2 Kinase Assay; assay type: biochemical; details: GST-HER2, 1 μM ATP
# T5 construct: the nucleotides encoding amino acids 679 to 1255 of HER-2; HIS6-Thrombin (His6 tag with thrombin site) (N); purchased Proqinase (Freiburg, Germany)
# Protocol: The HER-2 kinase used was purified at Proqinase (Freiburg, Germany) from a construct that consisted of a fusion of GST (Glutathione-S-Transferase), HIS6-Thrombin and the nucleotides encoding amino acids 679 to 1255 of HER-2.
# A mixture of a 10× kinase reaction buffer (600 mM Hepes at pH 7.5, 30 mM Magnesium Chloride, 0.03 mM Sodium Vanadate and […] PEG 20,000), DTT (1.2 mM final from a 10 mM stock), ATP (1 μM from a 10 mM stock), biotinylated polyGluTyr (1.5 ng/μL final from stock of 1 μg/μL prepared by Upstate Biotechnologies, Lake Placid, N.Y.), Manganese Chloride (3 mM final from a 1 M stock), γ-^33P-ATP (10 μCi/μL stock) and water (70 μL/well) was added to each well of a Streptavidin Flashplate (Cat. # SMP103, NEN, Boston, Mass.).
# Test compound stock (1 μL) was added to the appropriate wells. Diluted GSTHER2 kinase (6.7 ng/μL diluted into 50 mM Tris-HCl at pH 8.0 and 0.1% bovine serum albumin) (30 μL) was added (total volume of 200 ng/well) to initiate the reactions.
# The reaction plates were incubated at 30° C. for 1 hr. The reaction was terminated by aspirating the reaction mixture from the plate wells and washing the wells three times with a 1×PBS stop buffer (300 μL) and 100 mM EDTA. After the final wash, the same stop buffer (200 μL) was again added to the wells. The plates were then sealed and read on the TopCount scintillation counter. […]
# T1 sequence (P00533 667-1210 limits assumed): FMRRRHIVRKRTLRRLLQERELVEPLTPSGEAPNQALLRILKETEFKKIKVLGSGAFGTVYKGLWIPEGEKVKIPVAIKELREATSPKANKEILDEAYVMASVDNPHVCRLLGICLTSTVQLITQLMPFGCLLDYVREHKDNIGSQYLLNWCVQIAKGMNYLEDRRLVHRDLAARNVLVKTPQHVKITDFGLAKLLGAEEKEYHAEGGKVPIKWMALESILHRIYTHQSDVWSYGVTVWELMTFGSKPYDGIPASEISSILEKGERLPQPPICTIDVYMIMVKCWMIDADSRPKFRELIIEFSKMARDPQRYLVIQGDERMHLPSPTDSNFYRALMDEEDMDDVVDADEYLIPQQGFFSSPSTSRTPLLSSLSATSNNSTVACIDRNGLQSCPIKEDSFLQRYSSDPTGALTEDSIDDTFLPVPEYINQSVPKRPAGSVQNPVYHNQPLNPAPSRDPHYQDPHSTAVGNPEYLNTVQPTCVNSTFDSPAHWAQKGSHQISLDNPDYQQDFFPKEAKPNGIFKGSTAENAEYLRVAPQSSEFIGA
# T4 sequence (P12931 whole entry): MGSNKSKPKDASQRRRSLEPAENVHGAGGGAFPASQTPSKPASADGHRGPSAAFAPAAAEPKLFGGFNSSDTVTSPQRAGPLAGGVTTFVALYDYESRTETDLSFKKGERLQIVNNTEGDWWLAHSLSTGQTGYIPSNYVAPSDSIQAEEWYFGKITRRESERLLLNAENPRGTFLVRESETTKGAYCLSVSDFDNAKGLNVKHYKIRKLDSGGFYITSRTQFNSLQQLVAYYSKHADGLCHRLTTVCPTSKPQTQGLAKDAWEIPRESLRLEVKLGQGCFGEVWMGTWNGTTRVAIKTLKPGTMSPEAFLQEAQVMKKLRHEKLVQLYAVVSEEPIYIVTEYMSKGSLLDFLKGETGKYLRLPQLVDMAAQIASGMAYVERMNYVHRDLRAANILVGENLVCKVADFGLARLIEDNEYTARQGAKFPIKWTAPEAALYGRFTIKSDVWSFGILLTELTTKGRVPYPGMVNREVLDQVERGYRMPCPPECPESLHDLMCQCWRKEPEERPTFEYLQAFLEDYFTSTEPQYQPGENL
# T3 sequence (P07948 whole entry): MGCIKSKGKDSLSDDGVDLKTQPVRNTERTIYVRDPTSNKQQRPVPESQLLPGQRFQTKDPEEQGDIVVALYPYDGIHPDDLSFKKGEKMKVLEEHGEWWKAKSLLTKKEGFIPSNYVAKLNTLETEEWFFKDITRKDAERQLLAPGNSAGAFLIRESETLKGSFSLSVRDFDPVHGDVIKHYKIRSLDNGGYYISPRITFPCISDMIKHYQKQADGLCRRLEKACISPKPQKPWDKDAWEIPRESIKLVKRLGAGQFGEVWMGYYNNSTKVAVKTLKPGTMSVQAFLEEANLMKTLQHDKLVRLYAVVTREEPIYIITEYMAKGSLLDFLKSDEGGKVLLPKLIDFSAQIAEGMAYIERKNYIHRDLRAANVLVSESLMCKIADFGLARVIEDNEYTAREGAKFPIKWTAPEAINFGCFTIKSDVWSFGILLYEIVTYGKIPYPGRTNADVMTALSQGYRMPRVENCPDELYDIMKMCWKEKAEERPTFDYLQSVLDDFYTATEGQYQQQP
# T5 sequence (P04626 679-1255): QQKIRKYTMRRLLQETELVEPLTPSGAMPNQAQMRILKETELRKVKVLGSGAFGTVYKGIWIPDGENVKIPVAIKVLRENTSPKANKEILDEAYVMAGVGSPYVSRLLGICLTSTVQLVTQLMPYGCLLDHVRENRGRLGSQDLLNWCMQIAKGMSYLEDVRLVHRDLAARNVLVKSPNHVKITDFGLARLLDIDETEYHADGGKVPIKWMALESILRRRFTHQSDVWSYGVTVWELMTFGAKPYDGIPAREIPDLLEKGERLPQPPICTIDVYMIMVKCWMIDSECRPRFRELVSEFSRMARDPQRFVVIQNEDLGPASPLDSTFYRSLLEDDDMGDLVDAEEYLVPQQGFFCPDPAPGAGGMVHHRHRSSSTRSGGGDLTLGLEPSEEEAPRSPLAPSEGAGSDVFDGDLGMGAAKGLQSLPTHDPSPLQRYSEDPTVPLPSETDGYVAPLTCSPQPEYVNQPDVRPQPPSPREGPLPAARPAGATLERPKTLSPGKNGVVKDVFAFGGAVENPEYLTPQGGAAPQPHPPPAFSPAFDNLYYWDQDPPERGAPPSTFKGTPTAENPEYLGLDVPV
# T2 sequence (P00519 whole entry): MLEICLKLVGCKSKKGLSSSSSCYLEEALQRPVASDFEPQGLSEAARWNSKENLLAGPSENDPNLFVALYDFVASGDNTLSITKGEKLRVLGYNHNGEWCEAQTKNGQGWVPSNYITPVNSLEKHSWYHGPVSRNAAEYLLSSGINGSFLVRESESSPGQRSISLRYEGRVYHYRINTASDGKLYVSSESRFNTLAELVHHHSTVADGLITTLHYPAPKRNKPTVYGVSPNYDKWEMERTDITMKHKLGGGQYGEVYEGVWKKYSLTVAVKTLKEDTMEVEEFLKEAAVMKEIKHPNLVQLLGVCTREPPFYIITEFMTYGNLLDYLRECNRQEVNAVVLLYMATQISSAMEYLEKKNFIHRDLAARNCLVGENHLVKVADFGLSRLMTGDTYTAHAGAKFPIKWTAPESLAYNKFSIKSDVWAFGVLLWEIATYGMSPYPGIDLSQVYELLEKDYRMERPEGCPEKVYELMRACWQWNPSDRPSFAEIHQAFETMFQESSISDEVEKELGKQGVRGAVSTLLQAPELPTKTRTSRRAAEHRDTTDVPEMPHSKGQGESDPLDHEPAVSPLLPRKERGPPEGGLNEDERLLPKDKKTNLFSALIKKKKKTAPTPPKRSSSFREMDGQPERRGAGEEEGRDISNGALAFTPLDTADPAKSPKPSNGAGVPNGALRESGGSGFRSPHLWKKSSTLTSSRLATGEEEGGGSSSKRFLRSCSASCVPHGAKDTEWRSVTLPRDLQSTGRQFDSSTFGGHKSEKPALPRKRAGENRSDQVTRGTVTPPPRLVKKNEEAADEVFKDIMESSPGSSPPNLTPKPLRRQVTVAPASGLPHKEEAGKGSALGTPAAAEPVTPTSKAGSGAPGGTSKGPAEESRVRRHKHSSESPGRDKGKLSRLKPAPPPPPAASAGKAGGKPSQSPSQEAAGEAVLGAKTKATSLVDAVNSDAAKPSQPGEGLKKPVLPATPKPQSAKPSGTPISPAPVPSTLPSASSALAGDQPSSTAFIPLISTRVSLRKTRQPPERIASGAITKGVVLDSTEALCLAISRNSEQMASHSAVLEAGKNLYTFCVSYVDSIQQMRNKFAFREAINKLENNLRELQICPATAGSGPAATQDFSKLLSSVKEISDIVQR
smiles,measurement,setting,value
"Fc1ccc(Nc2ncnc3nc(Nc4ccc(CN5CCCCC5)cc4)sc23)cc1Cl [Cpd 2, N^7-(3-chloro-4-fluoro-phenyl)-N^2-(4-piperidin-1-ylmethyl-phenyl)-thiazolo[4,5-d]pyrimidine-2,7-diamine]",IC50,EGFR,8.9 nM
same,IC50,SK-OV-3 [1],490 nM
"CN(C)CCc1ccc(Nc2nc3ncnc(Nc4ccc(F)c(Cl)c4)c3s2)cc1 [Cpd 11, N^7-(3-chloro4-fluoro-phenyl)-N^2-[4-(2-dimethylamino-ethyl)-phenyl]-thiazolo[4,5-d]pyrimidine-2,7-diamine]",IC50,EGFR,12.8 nM
same,IC50,SK-OV-3 [1],600 nM
"Fc1ccc(Nc2ncnc3nc(Nc4ccc(CN5CCCC5)cc4)sc23)cc1Cl [Cpd 17, N^7-(3-chloro-4-fluoro-phenyl)-N^2-(4-pyrrolidin-1-ylmethyl-phenyl)-thiazolo[4,5-d]pyrimidine-2,7-diamine]",IC50,EGFR,4.2 nM
same,IC50,SK-OV-3 [1],620 nM
"Fc1ccc(Nc2ncnc3nc(Nc4ccc(CN5CCOCC5)cc4)sc23)cc1Cl [Cpd 18, N^7-(3-chloro-4-fluoro-phenyl)-N^2-(4-morpholin-4-ylmethyl-phenyl)-thiazolo[4,5-d]pyrimidine-2,7-diamine]",IC50,EGFR,15.4 nM
same,IC50,A375,> 100000 nM
same,IC50,HeLa,> 100000 nM
same,IC50,"SK-OV-3 [2]; Homo sapiens, SK-OV-3, SK-OV-3 migration",186 nM
same,IC50,SK-OV-3 [2]; SK-OV-3 migration,156 nM and 141 nM
same,IC50,HCT-116,> 100000 nM
"C#Cc1cccc(Nc2ncnc3nc(Nc4ccc(CNC[C@H]5CCCO5)cc4)sc23)c1 [Cpd 64, N^7-(3-ethynyl-phenyl)-N^2-(4-{[(2R)-(tetrahydro-furan-2-ylmethyl)-amino]-methyl}-phenyl)-thiazolo[4,5-d]pyrimidine-2,7-diamine]",inhibition at 1 µM,c-Abl kinase,1%
same,inhibition at 1 µM,Lyn kinase,17%
same,IC50,EGFR,3.96 nM
same,inhibition at 1 µM,c-Src kinase,21%
"C#Cc1cccc(Nc2ncnc3nc(Nc4ccc(CNCC(O)CO)cc4)sc23)c1 (centres unmarked) [Cpd 66, 3-{4-[7-(3-ethynyl-phenylamino)-thiazolo[4,5-d]pyrimidin-2-ylamino]-benzylamino}-propane-1,2-diol]",inhibition at 1 µM,Lyn kinase,25%
same,IC50,EGFR,7.28 nM
same,inhibition at 1 µM,c-Src kinase,15%
"CN1CCN(Cc2ccc(Nc3nc4ncnc(Nc5ccc(OCc6cccc(F)c6)c(Cl)c5)c4s3)cc2)CC1 [Cpd 68, N^7-[3-chloro-4-(3-fluoro-benzyloxy)-phenyl]-N^2-[4-(4-methyl-piperazin-1-ylmethyl)-phenyl]-thiazolo[4,5-d]pyrimidine-2,7-diamine]",IC50,HER-2,276 nM
same,IC50,EGFR,20.3 nM
same,IC50,A375,2030 nM
same,IC50,HeLa,2190 nM
same,IC50,HCT-116,3080 nM
"CN1CCN(Cc2ccc(Nc3nc4ncnc(Nc5ccc(Oc6ccccc6)cc5)c4s3)cc2)CC1 [Cpd 94, N^2-[4-(4-methyl-piperazin-1-ylmethyl)-phenyl]-N^7-(4-phenoxy-phenyl)-thiazolo[4,5-d]pyrimidine-2,7-diamine]",IC50,HER-2,1870 nM
same,IC50,EGFR,319 nM
